Measurements as given in article PMC6804080, “Benzoxaboroles—Novel Autotaxin Inhibitors” (Molecules, 2019).
≈ marks a conversion by molar mass, not a printed value. Where two headings read alike, the source gives them in different places.

Key:
[1] = tested on: LPA plasma levels; details: cited from earlier work
[2] = tested on: ATX; set-up: method as in PMID 23688339; details: read-out: IC50 (inhibitory properties); cited from earlier work
[3] = biological target: T1, Autotaxin (ATX) (Homo sapiens, UniProt Q13822); assay: biochemical choline detection assay for ATX inhibition, LysoPC substrate; details: choline release assay using as a substrate; mean standard deviation from duplicate experiments
T1 construct: we added 10 μL of recombinant ATX (2 ng/mL) in a Tris–HCl buffer
Description: All 21 new benzoxaboroles derivatives prepared herein were evaluated for ATX inhibition in vitro using a biochemical choline detection assay, combining elements of assays already described in the literature.
[…] Mother plates with serial dilutions of compounds in pure DMSO were prepared from 10 mM DMSO stock solutions. Storplate-384-deep-well-V plates (Perkin Elmer) were also used for mother plate preparation. Compounds were diluted in a DMSO in a ratio of 1:3. An aliquot of 200 nL of compound solution was transferred from the mother plate to the test plate with a Mosquito nanoliter liquid handling system (TTP labtech). The assay was performed in Spectra-Plate-384 TC, transparent, (Perkin Elmer, Cat#6007658) using a 20 µL assay volume. The total final percentage of DMSO in the test media was 1%. Compounds were tested at 11 consecutive three-fold dilutions starting from 50 µM (final concentrations) in duplicate, covering range of 0.0008–50 μM to determine IC50 values. […] After dispensing of compounds directly to the dry plate, we added 10 μL of recombinant ATX (2 ng/mL) in a Tris–HCl buffer (140 mM NaCl, 1mM MgCl2, 5 mM KCl, 3 mM CaCl2, 1 mg/ml bovin serum albumin (BSA, fatty acid free) and 100 mM Tris–HCl, pH 9). […] The above-described solution with dimethyl sulfoxide but without the test compound was used as a control. LysoPC without ATX was used as a control for the autohydrolysis of LysoPC. After 1.5 h of incubation, 20 μL of stop solution and developer was added {Choline oxidase (1.2 U/mL), Peroxidase (1.2 U/mL), TOOS (2.7 mM), 4-Aminoantipyrine (2.7 mM), and EDTA (50 mM)} to the reaction mixture, and absorbance was measured after 30 min of incubation. The absorbance was measured by using Perkin-Elmer EnVision plate reader (λ = 555 nm). Data were analyzed using GraphPad Prism software. The calculation of IC50 data, curves and quality control (QC) analysis was made by using Excel tools and GraphPadPrism software. Briefly, individual concentration–effect curves were generated by plotting the logarithm of the tested concentration of tested compounds (X) vs. corresponding percentage inhibition values (Y) using a least squares (ordinary) fit. […] QC criteria parameters (Z,’ S:B, ΔmP) were checked for every plate.

[4] = in vitro plasma stability, rat plasma; format: in vitro ADME; details: after 4 h
Description: (§1) The in vitro plasma stability of the test compounds was studied in human and rat plasma with propranolol, benflorex, and eucatropine as control substances. All compounds at final concentrations of 5 μM (0.5% DMSO) were incubated in a phosphate buffer (50 mM, pH 7.4) for 4 h at 37 °C together with plasma. Aliquots were taken at different time points (0, 30, 120 min and 4 h), followed by reaction termination by the addition of CH3CN:CH3OH 2:1 v/v., which contained diclofenac and warfarin as internal standards (IS). Samples were then centrifuged (at 1600 rpm at 4 °C for 30 min), and the resulting supernatants were subjected to LC/MS/MS analysis. Results are expressed as % remaining.

[5] = metabolic stability in rat liver microsomes; format: in vitro ADME
Description: (§2) Metabolic stability was assessed in rat and human liver microsomes, with testosterone and propranolol as positive controls. All compounds, at a final concentration of 1 μM (0.03% DMSO), were incubated in a phosphate buffer (50 mM, pH 7.4) for 60 min at 37 °C, together with liver microsomes in the absence and presence of NADPH generating system (nicotinamide adenine dinucleotide phosphate (NADP, 2 mM), glucose-6-phosphate (20 mM), glucose-6-phosphate dehydrogenase (6U) and magnesium chloride (2 mM)). Aliquots were taken at different time points (0, 10, 20, 30, 45 and 60 min), followed by reaction termination by addition of CH3CN:CH3OH 2:1 v/v, containing diclofenac as internal standard (IS). Samples were then centrifuged (at 2000 rpm at 4 °C for 30 min), and resulting supernatants were subjected to LC/MS/MS analysis. The in vitro half-life was calculated in GraphPadPrism software from % remaining vs. time regression using non-linear regression fit. In vitro intrinsic clearance, expressed as mL/min/g liver, was determined from in vitro half-life and normalized for the protein concentration in the incubation mixture, assuming a 52.5 mg/g liver.

[6] = in vitro plasma stability, human plasma; format: in vitro ADME; details: after 4 h
Description: as §1

[7] = Chrom logD determination by gradient HPLC (CHI); format: physicochemical; details: reversed-phase HPLC, Phenomenex Luna C18 column; pH 7.4, Luna C18 column
Description: clogP values were calculated for all compounds using the Percepta software. Chrom logD was determined experimentally using a procedure described in the supplementary data. Furthermore, the correlation between calculated clogP values and experimentally determined Chrom log D values were explored for molecules containing boron functional groups such as boronic acids and benzoxaboroles.
Chrom logD values were determined from the following equation: Chrom logD = 0.0857 × CHI − 2 [39]. Chromatographic hydrophobic index (CHI) values were determined from the gradient retention times (RT). These values approximately corresponded to the volume percentage of organic component in the mobile phase when the compound elutes. CHI values were determined at pH 7.4. Chromatograms were obtained using on Agilent 1100 Series liquid chromatography system with an HPLC diode-array detector (DAD) coupled with a Micromass Quattro micro atmosphere pressure ionization (API) mass spectrometer. The column used for analyses was Phenomenex Luna C18 (50 × 3 mm, 5 µm, 100 Å). The column was maintained at 25 °C. The flow rate was 1.0 mL/min. The mobile phase was composed of 50 mM ammonium acetate in water at pH 7.4 (solvent A) and acetonitrile (solvent B). The solvent gradient condition was initially 0.5% B, and then it increased linearly to 100% B over 3.0 min, remaining at 100% B for 0.5 min, then decreasing linearly to 0% B over 0.2 min followed by an equilibration period of 1.3 min prior to the next injection. The total experimental duration was 5 min. Injection volume was 2.0 µl. Samples temperature was maintained at 15 °C in the autosampler chamber. A group of ten standard compounds having different CHI values was used for calibration of RP-HPLC [40].

[8] = plasma protein binding, equilibrium dialysis, human plasma; format: in vitro ADME; details: pH 7.4, read-out: PPB: fraction bound, human (converted)
Description: (§3) Plasma protein binding was measured using the equilibrium dialysis technique. Positive controls included in this assay were: Acebutolol (low binding) and nicardipine (very high binding). The assay was performed in a 96-well Teflon dialysis unit, where each well consisted of two chambers separated by a dialysis membrane. Plasma (human and rat, commercially obtained from Seralab) spiked with each compound (final concentration: 5 µM, 0.5% DMSO) were added to one chamber, and a blank buffer solution (60 mM Na2HPO4/14 mM KH2PO4/70 mM NaCl; pH 7.4) was added to the other side of the well. Each compound was analyzed in duplicate, for 4 h at 37 °C. After 4 h, both the plasma (free and bound fraction) and buffer (only free fraction) side of the well were sampled, matrix matched, then precipitated with a STOP solution (CH3CN:CH3OH 2:1 v/v, containing diclofenac as internal standard), and centrifuged at 2000 rpm for 30 min (+4 °C). The resulting supernatants were analyzed by LC-MS/MS. The fraction bound was calculated as the concentration difference (analyte vs. internal standard peak area ratio) in the plasma and buffer sides divided by the total concentration in the plasma side. Sampling was also performed from spiked plasma at t = 0 min in order to determine recovery, i.e., % of compound detected at t = 4 h in both the plasma and buffer chambers divided by the compound detected at t = 0 min.

[9] = plasma protein binding, equilibrium dialysis, rat plasma; format: in vitro ADME; details: pH 7.4, rat plasma
Description: as §3

[10] = metabolic stability in human liver microsomes; format: in vitro ADME
Description: as §2

[11] = kinetic solubility, turbidimetric method; format: physicochemical; details: 37 °C, pH 7.4, aqueous buffer, kinetic from dmso stock, Solubility (kinetic solubility range)
Description: Turbidimetric solubility allows for a rapid determination of kinetic solubility by using small amounts of the test compound. Assay controls were α-naphtoflavone (low solubility) and sulfaphenazole (expected solubility >100µM). DMSO stock solutions (10 mM) of each compound were first serially diluted 1 in 3 in DMSO and then spiked into an aqueous buffer (100 mM PBS), resulting in 5 following final concentration: 100, 30, 10, 3 and 1 µM (each concentration was tested in duplicate). […] Compound samples were compared to a solvent control in an aqueous buffer (DMSO 1% final concentration), and a significant increase of sample absorbance was considered to have occurred when the absorbance reached a 3-fold standard deviation of the average DMSO absorbance. The calculation of solubility range data was made by Excel tool software. Results are expressed as an estimated solubility range.

[12] = cited from earlier work
[13] = tested on: A2058 human melanoma cells; details: dose-dependent manner; cited from earlier work
[14] = tested on: ATX; details: read-out: reported activity in in vitro LPC choline release assay; cited from earlier work
[15] = set-up: method as in PMID 23688339; details: cited from earlier work
[16] = tested on: glioma tumor; set-up: method as in PMID 30462853; details: in vivo; cited from earlier work
[17] = tested on: glioblastoma cell lines; set-up: method as in PMID 30462853; details: cited from earlier work
[18] = read-out: PPB: fraction bound, rat (converted)
[19] = mice, intravenous administration 1 nmol/g

Compound	PS (plasma stability), rat [4] [%remaining]	LMS: predicted in vivo hepatic clearance, rat [5] [%LBF]	PS (plasma stability), human [6] [%remaining]	fraction unbound at 4 h, 5 µM [8]	fraction unbound at 4 h, 5 µM [9, 18]	LMS: predicted in vivo hepatic clearance, human [10] [%LBF]	LPA in the in vivo study [1]	half-life in vivo [12]	also measured
O=C1N=C(N2CCN(Cc3cccc(B(O)O)c3)CC2)SC1=Cc1ccc(Cl)c(Cl)c1 [Compound 3BoA]									LPA plasma levels ([1]; mice, 4 mg/kg i.v. injection): significantly decreases LPA plasma levels (almost to zero); plasma LPA levels ([1]; mice, 4 mg/kg intravenous administration): decreases rapidly plasma LPA levels; IC50 [2]: 13 nM
Cc1cc(C)cc(COC(=O)N2CCN(C3CN(C(=O)c4ccc5c(c4)B(O)OC5)C3)CC2)c1 [Compound 45, (3,5-dimethylphenyl)methyl 4-[1-(1-hydroxy-3H-2,1-benzoxaborole-6-carbonyl)azetidin-3-yl]piperazine-1-carboxylate]	68.6	61	72.8	0.041	0.056	84			IC50 [3]: 1000 ± 1150 nM; chromatographic logD [7]: 4.17; solubility kinetic at 1 h [11]: > 100 µM
O=C1S/C(=C\c2ccc(OCc3cccc(B(O)O)c3)cc2)C(=O)N1Cc1ccc(F)cc1 [HA130]							lowering LPA significantly	less than five	LPA levels in the plasma [1, 19]: rapid decrease of LPA levels; toxicity [1, 19]: no overt toxicity issues observed; ATX-mediated migration of A2058 human melanoma cells [13]: inhibited; IC50 [14]: 28 nM
O=C1S/C(=C\c2ccc(OCc3ccc(B(O)O)cc3)cc2)C(=O)N1Cc1ccc(F)cc1 [HA155, reference compound]	65.7	< 30	42.9	< 0.001	0.001	54	lowering LPA significantly	less than five	Solubility, value taken from literature [15]: 6.8 µM (≈ 3.15 µg/mL); fraction unbound at 4 h, 5 µM ([9]; read-out: fraction unbound, rat plasma): 0.004
O=C(CCN1CCN(C(=O)OCc2cc(Cl)cc(Cl)c2)CC1)c1ccc2[nH]c(=O)oc2c1 [PF-8380]									glioma tumor growth progression [16]: delaying simultaneously glioma tumor growth progression; anti-invasive effect [17]: significant anti-invasive effect
